Experimental data reported in patent US4298735A, “Folic acid derivatives” (Union Carbide Corporation, priority 1979, dated 1981).
Blank lines part the entries; values can stand above or below the compound they belong to.

Legend:
whole milk folate binder = whole milk folate binder (Bos taurus, UniProt P02702); experiment: Folate competitive protein binding (CPB) radioassay; details: for dose response curves generated using pteroyltyrosine [125I] as label: at high pH compared with lower pH
Experimental: The use of the Centria® analytical system, Union Carbide Corporation, in this example, is meant to be illustrative and other methods, both automated and manual, obvious to those skilled in the clinical diagnostic art are also within the scope of this invention.
Briefly, the Centria® system is a tri-modular instrument in which reagents are pipetted on to a multi-well transfer disk and mixed centrifugally with standards or patients' samples. After a suitable incubation period, the components are separated by a centrifugal elution of the bound and free fractions and the bound fractions counted three at a time.
Folic acid and N^5 -methyltetrahydrofolic acid standards in the range 0-20 nanograms/milliliter were prepared in 0.05 M sodium borate, pH 9.3 containing 0.1% human serum albumin. The whole milk binder was prepared according to the method of Rothenberg et al., ^(3) and dissolved in sodium borate, pH 9.3 containing 0.1% human serum albumin
(50 microliters, 20,000 cpm) plus 85 microliters of water with the limited number of binding sites contained in a 200 microliter solution of whole milk folate binder. The binding reactions may be shown as follows:
A gamma counter which counts three of the 36 positions at a time for one minute, so constructed that only the eluate bottom portion of the test tubes fits into the counter, was then used to count all samples. Sequential counting of the tubes thus required about 12 minutes. A small computer with printout capability then printed out the data after completion of the cycle.

[1] = Storage stability of the radioiodinated label; format: physicochemical; details: stored in a 50% aqueous propylene glycol solution, ten-week period
Source text: Radioiodination of biological compounds frequently leads to marked chemical instability and subsequent degradation of the radiolabel. This problem is often accentuated in the radiolabel when the materials to be radioiodinated are known to be sensitive to oxygen, light or extremes in pH, as is the case with folic acid and some derivatives.
The reaction mixture was applied to a 1×20 cm Sephadex G25, fine, (Pharmacia Fine Chemicals, Uppsala, Sweden) column hydrated with distilled water and equilibrated with 0.1 M potassium phosphate, pH 7.5. The column was eluted with 0.1 M potassium phosphate buffer and 3 ml fractions collected. The product "peak" fractions 32-34 were collected, diluted 1:1 with propylene glycol and stored below 0° C.

carboxypeptidase A = experiment: Enzymatic hydrolysis of pteroyltyrosine followed by UV; format: biochemical; details: 0.025 M Tris-HCl, 2 mM zinc chloride, pH 7.3, two hours, ambient temperature
Experimental: Two milliliters of a solution of pteroyltrosine (0.75 mmoles/ml) in 0.025 M Tris-HCl containing 2 mM zinc chloride, pH 7.3 were diluted to 10 ml with distilled water. A portion of this solution (2 ml) was placed in a 1 cm cuvette and in another was placed 2 ml of distilled water. To each of the cuvettes was added 50 μl of a solution of 100 μl carboxypeptidase A suspension (Aldrich chemical, lot 060637) diluted with 0.9 ml of 10% lithium chloride.
The time course of the reaction was followed spectrophotometrically (uv) over a period of two hours at ambient temperature. An increase and shift in max from 280 to 277 nm and a marked decrease in absorption at 220 nm was observed. Two isosbestic points at 242 and 282 nm were visible.

whole milk folate binder, sequence (P02702 20-234): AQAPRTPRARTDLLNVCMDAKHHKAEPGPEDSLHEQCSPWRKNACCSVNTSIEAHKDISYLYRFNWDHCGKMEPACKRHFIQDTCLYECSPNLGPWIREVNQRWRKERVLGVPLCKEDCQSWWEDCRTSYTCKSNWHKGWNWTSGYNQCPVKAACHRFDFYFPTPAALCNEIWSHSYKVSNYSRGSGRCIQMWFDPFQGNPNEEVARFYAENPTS

Structure (SMILES): Nc1nc2ncc(CNc3ccc(C(=O)N[C@@H](CCC(=O)O)C(=O)O)cc3)nc2c(=O)[nH]1 [folic acid]
dose response curves generated using pteroyltyrosine [125I] as label (whole milk folate binder): more nearly coincident

performance as radiolabel in CPB radioassay for folic acid (whole milk folate binder; folic acid concentration range of 0-20 ng/ml): effective radiolabel
stability of radioiodinated product (assay performance on storage) [1]: no deterioration in assay performance
Structure (SMILES): Nc1nc(O)c2nc(CNc3ccc(C(=O)N[C@@H](Cc4ccc(O)c([125I])c4)C(=O)O)cc3)cnc2n1 [pteroyltyrosine [^125 I]]

Structure (SMILES): Nc1nc2ncc(CNc3ccc(C(=O)N[C@@H](Cc4ccc(O)cc4)C(=O)O)cc3)nc2c(=O)[nH]1 [pteroyltyrosine, Pteroyl-L-Tyrosine]
hydrolysis by carboxypeptidase A (UV time course, final spectrum) (carboxypeptidase A): final spectrum was very similar to that of pteroic acid

Structure (SMILES): CN1c2c(nc(N)[nH]c2=O)NCC1CNc1ccc(C(=O)N[C@@H](CCC(=O)O)C(=O)O)cc1 (some centres unmarked) [N^5 -methyl THF, N-5-methyltetrahydrofolic acid]
dose response curves generated using pteroyltyrosine [125I] as label (whole milk folate binder): more nearly coincident
